Laboratory results from PubChem BioAssay AID256 (DTP/NCI, 2004).
Values joined by “and” are separate entries in the source; they are usually repeats but may differ in a detail not shown here. Equal values may be shown once. Toxic doses and inconclusive results are not listed. Rule for the calls: active = survival T/C of 150% or more; inactive = T/C below 125% in these data.

System: CD2F1 mice, L1210 leukemia ip, survival T/C
Assay: NCI In Vivo Anticancer Drug Screen. Data for tumor model L1210 Leukemia (intraperitoneal) in CD2F1 (CDF1) mice
Conditions: higher = longer survival
Summary of the method: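 Implant tumor; dose compound or vehicle; measure endpoint in both groups; report treated divided by control.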

[1] = endpoint: mean survival time, dose: 100.0 mg/kg/injection, schedule: Q04DX003 (ip), vehicle: saline with Tween-80
[2] = endpoint: mean survival time, dose: 200.0 mg/kg/injection, schedule: Q04DX003 (ip), vehicle: saline with Tween-80
[3] = endpoint: mean survival time, dose: 400.0 mg/kg/injection, schedule: Q04DX003 (ip), vehicle: saline with Tween-80
[4] = endpoint: mean survival time, dose: 50.0 mg/kg/injection, schedule: Q04DX002 (ip), vehicle: saline with Tween-80
[5] = endpoint: mean survival time, dose: 100.0 mg/kg/injection, schedule: Q01DX001 (ip), vehicle: saline with Tween-80
[6] = endpoint: mean survival time, dose: 200.0 mg/kg/injection, schedule: Q01DX001 (ip), vehicle: saline with Tween-80
[7] = endpoint: mean survival time, dose: 100.0 mg/kg/injection, schedule: Q01DX001 (ip), vehicle: saline

Measured: T/C

CCC12C=CCN3CCC4(c5cc(C6c7[nH]c8ccccc8c7CCN7CCCCC67)c(OC)cc5N(C)C4C(O)(C(=O)OC)C1OC(C)=O)C32 (stereo not given)
inactive: endpoint: mean survival time, dose: 0.06 mg/kg/injection, schedule: Q01DX009 (ip), vehicle: other 93 % of control | endpoint: mean survival time, dose: 0.13 mg/kg/injection, schedule: Q01DX009 (ip), vehicle: other 93 % of control | endpoint: mean survival time, dose: 0.25 mg/kg/injection, schedule: Q01DX009 (ip), vehicle: other 92 % of control | endpoint: mean survival time, dose: 0.5 mg/kg/injection, schedule: Q01DX009 (ip), vehicle: other 95 % of control | endpoint: mean survival time, dose: 1.0 mg/kg/injection, schedule: Q01DX009 (ip), vehicle: other 90 % of control | endpoint: mean survival time, dose: 2.0 mg/kg/injection, schedule: Q01DX009 (ip), vehicle: other 93 % of control | endpoint: mean survival time, dose: 4.0 mg/kg/injection, schedule: Q01DX009 (ip), vehicle: other 93 % of control

C=C1C(=O)OC2/C=C(\C)CC/C=C(/C=O)C(OC(=O)C(C)C)C(O)C12 (stereo not given)
inactive: endpoint: mean survival time, dose: 1.0 mg/kg/injection, schedule: Q01DX009 (ip), vehicle: saline with Tween-80 113 % of control and 103 % of control | endpoint: mean survival time, dose: 2.0 mg/kg/injection, schedule: Q01DX009 (ip), vehicle: saline with Tween-80 103 % of control and 105 % of control and 107 % of control | endpoint: mean survival time, dose: 4.0 mg/kg/injection, schedule: Q01DX009 (ip), vehicle: saline with Tween-80 97 % of control and 100 % of control and 107 % of control | endpoint: mean survival time, dose: 8.0 mg/kg/injection, schedule: Q01DX009 (ip), vehicle: saline with Tween-80 102 % of control and 109 % of control and 112 % of control | endpoint: mean survival time, dose: 16.0 mg/kg/injection, schedule: Q01DX009 (ip), vehicle: saline with Tween-80 92 % of control and 96 % of control

O=c1[nH]cc(COCc2ccccc2)c(=O)[nH]1
inactive: [1] 98 % of control | [2] 104 % of control | [3] 96 % of control

N#Cc1nc(-c2ccco2)c(-c2ccco2)nc1C#N
inactive: endpoint: mean survival time, dose: 25.0 mg/kg/injection, schedule: Q04DX002 (ip), vehicle: saline with Tween-80 102 % of control | [4] 90 % of control | [5] 96 % of control | endpoint: mean survival time, dose: 100.0 mg/kg/injection, schedule: Q04DX002 (ip), vehicle: saline with Tween-80 90 % of control

C[N+](C)(Cc1ccccc1)C1c2ccccc2-c2ccc(Cl)cc21 (stereo not given)
inactive: [4] 103 % of control

CCCCN1C(=O)C(=O)N(c2cc(Cl)c(OC)cc2OC)C1=O
inactive: endpoint: mean survival time, dose: 12.5 mg/kg/injection, schedule: Q01DX009 (ip), vehicle: saline with Tween-80 103 % of control | endpoint: mean survival time, dose: 25.0 mg/kg/injection, schedule: Q01DX009 (ip), vehicle: saline with Tween-80 88 % of control | endpoint: mean survival time, dose: 50.0 mg/kg/injection, schedule: Q01DX009 (ip), vehicle: saline with Tween-80 93 % of control and 96 % of control

CCOc1ccc2cc(S(=O)(=O)O)ccc2c1N
inactive: endpoint: mean survival time, dose: 100.0 mg/kg/injection, schedule: Q04DX003 (ip), vehicle: saline 93 % of control | endpoint: mean survival time, dose: 200.0 mg/kg/injection, schedule: Q04DX003 (ip), vehicle: saline 95 % of control | endpoint: mean survival time, dose: 400.0 mg/kg/injection, schedule: Q04DX003 (ip), vehicle: saline 103 % of control

Nc1ncnc2c1ncn2C(C=O)OC(C=O)CO (stereo not given)
inactive: endpoint: mean survival time, dose: 35.0 mg/kg/injection, schedule: Q01DX001 (ip), vehicle: saline 117 % of control

Cc1ccc(/C=C2\CCOC2=O)cc1
inactive: endpoint: mean survival time, dose: 100.0 mg/kg/injection, schedule: Q04DX003 (ip), vehicle: Klucel (hydroxypropylcellulose) (HPC) 102 % of control | endpoint: mean survival time, dose: 200.0 mg/kg/injection, schedule: Q04DX003 (ip), vehicle: Klucel (hydroxypropylcellulose) (HPC) 96 % of control | endpoint: mean survival time, dose: 400.0 mg/kg/injection, schedule: Q04DX003 (ip), vehicle: Klucel (hydroxypropylcellulose) (HPC) 96 % of control

O=C1C=C(c2ccccc2)C/C1=C\c1ccccc1
inactive: [5] 87 % of control | [6] 87 % of control

N#Cc1cccc(N)c1
inactive: endpoint: mean survival time, dose: 100.0 mg/kg/injection, schedule: Q01DX009 (ip), vehicle: saline with Tween-80 106 % of control | endpoint: mean survival time, dose: 200.0 mg/kg/injection, schedule: Q01DX009 (ip), vehicle: saline with Tween-80 94 % of control | endpoint: mean survival time, dose: 400.0 mg/kg/injection, schedule: Q01DX009 (ip), vehicle: saline with Tween-80 98 % of control

CN(C)c1ncnc2c1ncn2-c1cccc(-n2cnc3c(N(C)C)ncnc32)c1
inactive: endpoint: mean survival time, dose: 1.25 mg/kg/injection, schedule: Q01DX005 (ip), vehicle: other 103 % of control | endpoint: mean survival time, dose: 2.5 mg/kg/injection, schedule: Q01DX005 (ip), vehicle: other 88 % of control | endpoint: mean survival time, dose: 5.0 mg/kg/injection, schedule: Q01DX005 (ip), vehicle: other 92 % of control | endpoint: mean survival time, dose: 10.0 mg/kg/injection, schedule: Q01DX005 (ip), vehicle: other 92 % of control | endpoint: mean survival time, dose: 20.0 mg/kg/injection, schedule: Q01DX005 (ip), vehicle: other 88 % of control

Nc1nc(/C=C/c2ccc([N+](=O)[O-])cc2)c(-c2ccc(Cl)c(Cl)c2)c(=O)[nH]1
inactive: [5] 92 % of control | [6] 89 % of control | endpoint: mean survival time, dose: 400.0 mg/kg/injection, schedule: Q01DX001 (ip), vehicle: saline with Tween-80 90 % of control

CC(=O)c1ccc2c(c1)Cc1cc(C(C)=O)ccc1-2
inactive: endpoint: mean survival time, dose: 100.0 mg/kg/injection, schedule: Q04DX003 (ip), vehicle: saline sonified 96 % of control | endpoint: mean survival time, dose: 200.0 mg/kg/injection, schedule: Q04DX003 (ip), vehicle: saline sonified 93 % of control | endpoint: mean survival time, dose: 400.0 mg/kg/injection, schedule: Q04DX003 (ip), vehicle: saline sonified 98 % of control

CC1(C)N=C(N)N=C(N)N1c1ccc(Cl)c(C(F)(F)F)c1
inactive: endpoint: mean survival time, dose: 25.0 mg/kg/injection, schedule: Q04DX003 (ip), vehicle: saline with Tween-80 109 % of control | endpoint: mean survival time, dose: 50.0 mg/kg/injection, schedule: Q04DX003 (ip), vehicle: saline with Tween-80 124 % of control

CC(=O)OC1OC(CO)C(OC(C)=O)C(OC(C)=O)C1OC(C)=O (stereo not given)
inactive: endpoint: mean survival time, dose: 100.0 mg/kg/injection, schedule: Q01DX009 (ip), vehicle: saline sonified 97 % of control | endpoint: mean survival time, dose: 200.0 mg/kg/injection, schedule: Q01DX009 (ip), vehicle: saline sonified 97 % of control | endpoint: mean survival time, dose: 400.0 mg/kg/injection, schedule: Q01DX009 (ip), vehicle: saline sonified 98 % of control

COC(=O)C1C(C(=O)OC)C2C3C4C1C1C2C1C43 (stereo not given)
inactive: [1] 102 % of control | [2] 102 % of control | [3] 104 % of control

Nc1nc2nc(-c3ccccc3)nc(N)c2nc1-c1ccc(N(CCO)CCO)cc1
inactive: endpoint: mean survival time, dose: 45.0 mg/kg/injection, schedule: Q01DX001 (ip), vehicle: saline 100 % of control | endpoint: mean survival time, dose: 67.0 mg/kg/injection, schedule: Q01DX001 (ip), vehicle: saline 97 % of control | [7] 97 % of control | endpoint: mean survival time, dose: 150.0 mg/kg/injection, schedule: Q01DX001 (ip), vehicle: saline 96 % of control

O=C(Nc1ccccc1CCl)Nc1ccccc1CCl
inactive: endpoint: median survival time, dose: 50.0 mg/kg/injection, schedule: Q01DX005 (ip), vehicle: saline with Tween-80 111 % of control | endpoint: median survival time, dose: 100.0 mg/kg/injection, schedule: Q01DX005 (ip), vehicle: saline with Tween-80 117 % of control | endpoint: median survival time, dose: 200.0 mg/kg/injection, schedule: Q01DX005 (ip), vehicle: saline with Tween-80 115 % of control | endpoint: median survival time, dose: 400.0 mg/kg/injection, schedule: Q01DX005 (ip), vehicle: saline with Tween-80 121 % of control

O=C(Nc1cccc2ccccc12)N(c1ccccc1)c1ccccc1
inactive: [7] 105 % of control | endpoint: mean survival time, dose: 200.0 mg/kg/injection, schedule: Q01DX001 (ip), vehicle: saline 96 % of control | endpoint: mean survival time, dose: 400.0 mg/kg/injection, schedule: Q01DX001 (ip), vehicle: saline 94 % of control

O=C(CC(O)(C(F)(F)F)C(F)(F)F)c1ccc(Br)cc1
inactive: endpoint: mean survival time, dose: 100.0 mg/kg/injection, schedule: Q01DX009 (ip), vehicle: other 106 % of control | endpoint: mean survival time, dose: 200.0 mg/kg/injection, schedule: Q01DX009 (ip), vehicle: other 100 % of control | endpoint: mean survival time, dose: 400.0 mg/kg/injection, schedule: Q01DX009 (ip), vehicle: other 95 % of control

[C-]#[O+].[Cl][Sn]([Cl])[Cl].[Cl][Sn]([Cl])[Cl].[Pt].c1ccc([PH+](c2ccccc2)c2ccccc2)cc1.c1ccc([PH+](c2ccccc2)c2ccccc2)cc1
inactive: endpoint: median survival time, dose: 3.12 mg/kg/injection, schedule: Q04DX003 (ip), vehicle: saline with Tween-80 108 % of control | endpoint: median survival time, dose: 6.25 mg/kg/injection, schedule: Q04DX003 (ip), vehicle: saline with Tween-80 106 % of control | endpoint: median survival time, dose: 12.5 mg/kg/injection, schedule: Q04DX003 (ip), vehicle: saline with Tween-80 110 % of control | endpoint: median survival time, dose: 25.0 mg/kg/injection, schedule: Q04DX003 (ip), vehicle: saline with Tween-80 113 % of control | endpoint: median survival time, dose: 50.0 mg/kg/injection, schedule: Q04DX003 (ip), vehicle: saline with Tween-80 110 % of control | endpoint: median survival time, dose: 100.0 mg/kg/injection, schedule: Q04DX003 (ip), vehicle: saline with Tween-80 112 % of control | endpoint: median survival time, dose: 200.0 mg/kg/injection, schedule: Q04DX003 (ip), vehicle: saline with Tween-80 108 % of control
